According to patent US20050003449A1, “Method for determining molecular affinities for human serum albumin” (priority 2003, published 2005):

How the values were obtained:
HSA (V) = biological target: T1, HSA (V) (Homo sapiens, UniProt P02768); assay: Isothermal titration calorimetry of the probe with HSA; type: binding; conditions: ITC, PBS
T1 construct: Human serum albumin, fraction V, with a purity ≧95% as indicated by cellulose acetate electrophoresis; purchased Calbiochem 12666
Experimental: The bottom plot represents the isothermal titrating calorimetry results integrated enthalpies and least-squares curve fit for the probe interaction with HSA (V) in PBS.
Isothermal titration calorimetry experiments were performed using an OMEGA titrating microcalorimeter from Microcal, Inc. (Northampton, Mass.). Data collection, analysis, and plotting were performed using a Windows-based software package (Origin 5.0) supplied by the instrument vendor. The titrating microcalorimeter consisted of a sample and reference cell held in an adiabatic enclosure. The calorimeter was calibrated by comparing the measured areas of applied heat pulses to known values. Known and experimentally measured values agreed to within 2%.
The probe was prepared in DMSO at 10 mM and diluted to 500 μM in PBS. the probe and HSA solutions were degassed prior to analysis. The reference cell was filled with PBS. A 20 μM solution of HSA in PBS was placed in the 1.37 mL sample cell and the probe (0.5 mM) was held in a 250 μL syringe. Thirty injections (6 μL each) of the probe were made by a computer-controlled stepper motor into the sample cell filled with HSA held at 37° C. The syringe stir rate was 400 rpm. The heat adsorbed or released with each injection was measured by a thermoelectric device connected to a Microcal nanovolt preamplifier. Titration isotherms for the binding interactions were comprised of the differential heat flow for each injection. Heats of dilution obtained by injecting ligand into dialysate buffer were minor but were subtracted prior to fitting the data. Isotherms fit well to a single site model (Wiseman, T., et. al. Anal. Biochem (1989) 179, 131-137) using an iterative nonlinear least-squares algorithm included with the instrument.
All parameters were floated during the iterations until a minimum %^2 was obtained between experimental and fit data. […] The change in free energy (ΔG) and change in entropy (ΔS) were determined using the Gibbs' free energy equation. […]

HSA (fraction V) = HSA (fraction V) (Homo sapiens, UniProt P02768); assay: biochemical

## Cn1c(/C=C/c2ccc(C#N)cc2C(=O)O)cc2ccccc21 [the probe, 5-cyano-2-[(E)-2-(1-methyl-1H-indol-2-yl)ethenyl]benzoic acid]
HSA (V)
  enthalpy change for the interaction: -10.4 kcal/M
HSA (V); read-out: average affinity for all binding interactions
  Kd: 15 µM
HSA (V); single-site model
  molecules of the probe bound per HSA (stoichiometry): approximately 2
HSA (fraction V)
  Kd: 0.39 µM
